Key:
[1] = Free-radical scavenging activity (DPPH); conditions: various concentrations
Description: Measurement of Free-Radical Scavenging Activity
Antioxidant activity was evaluated based on scavenging activity of 2,2-diphenyl-1-picrylhydrazyl (DPPH) radical. DPPH was dissolved in 80% methanol to make a final concentration of 100 ? . 8 ? of EHMTIQ (11a) dissolved in dimethyl sulfoxide reacted with 232 ? of DPPH radical solution. The reaction mixture was incubated for 25 minutes at RT, and then the absorbance of DPPH was measured at 517 nm using a SpectraMax GEMINI XS fluorescence spectrophotometer (Molecular Devices, Sunnyvale, Calif., USA).
Free radicals produced by an activated microglial cell cause oxidative stress and structural transformation in protein, nucleic acid and lipids of a neuron, which lead to cell injury. Accordingly, the assay was performed to determine whether EHMTIQ (11a) has free radical scavenging activity.

NF-kB p65 = NF-kB p65 shift to nucleus in LPS-treated cells (Western blot); assay type: cell-based, mouse; conditions: 10 (unit as image)
Description: Assay for NF-kB p65 Shift to Nucleus
The cells were washed with cold phosphate buffered saline (PBS) and gently suspended in 400 ? buffer solution containing 10 mM HEPES (pH 7.9), 10 mM KCl, 0.1 mM EDTA, 0.1 mM EGTA, 1 mM DTT and 0.5 mM PMSF. The cell suspension was placed on ice for 15 minutes, and reacted with 25 ? NP-40 (0.5%) for 10 seconds. Cen-trifugation for 30 seconds yielded nuclear pellets, which were then resuspended in 50 ? of cold PBS containing 20 mM HEPES (pH 7.9), 400 mM NaCl, and 1 mM each of DTT, EDTA, EGTA and PMSF. The suspension was vortexted for 15 minutes. The nuclear extract was centrifuged at 11,000×g for 15 minutes to get supernatant solution, whose protein content was measured. Equal amounts of the cell extract (5 ? ) were subjected to electrophoresis in a 10% SDS-polyacrylamide gel and then transferred onto a polyvinylidene difluoride-nitrocellulose membrane. The membrane was blocked with TBST containing 8% skim milk at RT for one hour, incubated with primary antibody, anti-NF-kB p65 antibody (1:500 dilution), at 4° C. overnight, and further incubated with secondary antibody conjugated with horseradish peroxidase for one more hour. Protein bands were detected by a chemiluminescence detection method according to the manufacturer's indication.
A transcription factor, NF-kB, shifts into a nucleus to regulate expression of several inflammatory genes. […]

[2] = Drug stability against liver microsomal enzymes; assay type: in vitro ADME, rat
Description: Evaluation for Drug Stability
1 mM EHMTIQ (11a) was added to 1 mg samples of white rat liver microsomes, and the samples were incubated at 37° C. for 0, 30, 120 and 240 minutes in the presence of a NADPH-regeneration system (2.6 mM β-NADP^+, 10 mM glucose-6-phosphate, 4 UI/ml glucose-6-phosphate dehydrogenase and 10 mM MgCl2). Perchloric acid was added to the sample to make a final concentration of 500 mM and then the reaction was stopped. The reaction mixture was centrifuged at 16,000×g for 20 minutes. The supernatant solution (120 l) was purified using a Waters HPLC system [717 plus autosampler, 515 pump, and Symmetry C18 column (4.6 mm×150 mm, […])] using a 5-30% linear gradient of acetonitrile as mobile phase. EHMTIQ (11a) was detected at 254 nm using a Waters 486 UV detector and analyzed using EMPOWER software (Millipore Corporation, Milford, Mass., USA).
Since almost all micromolecules are degraded by enzymes in the liver, the stability of a medicine to these enzymes is very important. To evaluate bioavailability of EHMTIQ (11a) in vivo, the degradation rate of EHMTIQ (11a) by liver microsomal enzyme was measured, and neutralized to remaining EHMTIQ after exposure to liver microsomes.

COX-2 mRNA = assay: Expression of COX-2 genes in LPS-stimulated BV-2 cells (RT-PCR); assay type: cell-based, mouse
Description: RT-PCR for GTPCH, iNOS, TNF-α, IL-1β and COX-2
5 ? each of total RNA samples isolated from BV-2 cells were subjected to reverse-transcription (RT), and then polymerase chain reaction (PCR) for 30 cycles under the conditions of 94° C. for 30 seconds, 60° C. for 40 seconds and 72° C. for one minute. Primers used in the PCR were as follows: iNOS (forward, ATGTCCGAAG-CAAACATCAC; reverse, TAATGTC CAGGAAGTAGGTG), TNF-α (forward, CA-[…] reverse, CAGAGCAATGACTC-CAAAGTAGACCT), IL-1β (forward, […]; reverse, CAGGACAGGTAT AGATTCTTTCCTTT), COX-2 (forward, […]; reverse, […]), GTPCH (forward, GGATACCAGGAGACCAT CTCA; reverse, TAGCATGGTGC-TAGTGACAGT). RT-PCR for B2M was simultaneously performed as internal control. The PCR products were subjected to electrophoresis in a 1.5% agarose gel, thereby confirming the presence of a desired size of single band.
The gene expression of cyclooxigenase-2 (COX-2) stimulating a prostaglandin synthesis causing oxidative stress to neurons increased by the activation of a microglial cell. LPS-stimulated BV-2 cell samples were treated with various concentrations of EHMTIQ (11a), and the expression of COX-2 genes was estimated by RT-PCR. The results are illustrated in FIG. 5.

BV-2 cell [3] = assay: Cytotoxicity of single treatment in BV-2 cells; assay type: cell-based, mouse; conditions: single treatment (not illustrated)
BV-2 cell [4] = assay: Production of NADPH oxidase-derived superoxide in LPS-stimulated BV-2 cells (WST-1); assay type: cell-based, mouse
Description: Measurement of Superoxide Production
BV-2 microglial cells were planted in a 96-well Petri dish at 0.5×10^5 cells/ml. After a 24-hour culture, the cells were washed twice with Hank's balanced salt solution (HBSS) without phenol red and treated with EHMTIQ (11a) and WST-1. However, some samples were not treated with 20 ? superoxide dismutase (SOD; 800 UI/ml). All samples were incubaed at 37° C. for 10 minutes. The absorbance of a sample was read at 450 nm using a SpectraMax Plus microplate spectrophotometer. The yield of superoxide was calculated according to difference in absorbance value between the samples with and without SOD.
The activation of a microglial cell led to the activation of NADPH oxidase and the production of superoxide. Accordingly, the assay was performed to determine whether EHMTIQ (11a) affects production of NADPH oxidase-derived superoxide. The LPS-stimulated BV-2 cell samples were treated with various concentrations of EHMTIQ (11a) and then the level of released superoxide was measured. The results are illustrated in FIG. 2.

## CCC(=O)N1CCc2cc(OC)c(O)cc2C1 [EHMTIQ (11a), 2-ethylcarbonyl-7-hydroxy-6-methoxy-1,2,3,4-tetrahydroisoquinoline]
[1]
  scavenging activity of DPPH radicals: proportional to the concentration
NF-kB p65
  NF-kB p65 in nuclear fraction: completely inhibited
[2]; 2-hour exposure to liver microsomes
  EHMTIQ degraded: about 12.52%
[2]; 30-minute exposure to liver microsomes
  EHMTIQ remained: ~95%
[2]; liver microsomes, NADPH-regeneration system
  degeneration rate of EHMTIQ: 1.115±0.203 nmole (EHMTIQ)/min/mg (liver microsomal protein)
COX-2 mRNA; 2.5 (unit as image)
  COX-2 expression: 62±3%
COX-2 mRNA; 5 (unit as image)
  COX-2 expression: 75±3%
COX-2 mRNA; 10 (unit as image)
  COX-2 expression: 83±2%
BV-2 cell [3]
  cytotoxicity: did not exhibit any cytotoxicity
BV-2 cell [4]; 5 (unit as image)
  superoxide production: 62±3.1%
BV-2 cell [4]; 10 (unit as image)
  superoxide production: 65±3.1%
